In brackets after ≈: the same amount, converted by molar mass. Entries after “also recorded” stand apart in the source; their conditions may differ.
What was measured:
[1] = system: bacteria; settings: literature / earlier filings; cited from earlier work
[2] = system: Escherichia coli JR66/W677; test: microbe, parasite or virus in culture; format: cell-based; settings: resistance mechanism APH(3')-II, ANT(2"), Mueller-Hinton agar, 37° C
[3] = system: Escherichia coli K-12 R5; test: microbe, parasite or virus in culture; format: cell-based; settings: K12R5; Escherichia coli K-12 R5; resistance mechanism AAC(6'); Mueller-Hinton agar, 37° C
[4] = system: Pseudomonas aeruginosa GN 315; test: MIC, standard serial dilution method; format: cell-based; settings: GN315; Pseudomonas aeruginosa GN 315; resistance mechanism AAC(6'); Mueller-Hinton agar, 37° C; read-out: MIC
[5] = system: Proteus rettgeri GN 311; test: MIC, standard serial dilution method; format: cell-based; settings: Providencia rettgeri, GN311; Proteus rettgeri GN 311; Mueller-Hinton agar, 37° C; read-out: MIC
[6] = system: Corynebacterium bovis 1810; test: MIC, standard serial dilution method; format: cell-based; settings: Mueller-Hinton agar, 37° C
[7] = system: Staphylococcus aureus Ap01; test: MIC, standard serial dilution method; format: cell-based; settings: resistance mechanism ANT(4'), Mueller-Hinton agar, 37° C
[8] = system: Klebsiella pneumoniae 22#3038; test: MIC, standard serial dilution method; format: cell-based; settings: resistance mechanism APH(3')-II, ANT(2"), Mueller-Hinton agar, 37° C
[9] = system: Providencia sp. Pv 16; test: MIC, standard serial dilution method; format: cell-based; settings: SP.PV16, resistance mechanism AAC(2'), Mueller-Hinton agar, 37° C
[10] = system: Escherichia coli K-12 ML 1629; test: microbe, parasite or virus in culture; format: cell-based; settings: K12ML1629; Escherichia coli K-12 ML 1629; resistance mechanism APH(3')-I; Mueller-Hinton agar, 37° C; read-out: MIC
[11] = system: Escherichia coli K-12 LA 290 R55; test: microbe, parasite or virus in culture; format: cell-based; settings: K12LA290R55; Escherichia coli K-12 LA 290 R55; resistance mechanism ANT(2"); Mueller-Hinton agar, 37° C
[12] = system: Mycobacterium 607; test: MIC, standard serial dilution method; format: cell-based; settings: Mueller-Hinton agar, 37° C
[13] = system: Escherichia coli K-12; test: MIC, standard serial dilution method; format: cell-based; settings: K12; Escherichia coli K-12; Mueller-Hinton agar, 37° C; read-out: MIC
[14] = in vivo; settings: mouse, iv, pH 7
Text: Further, in order to estimate acute toxicity of the compound of the general formula (I) according to this invention, some examples of the compounds of this invention were independently dissolved in water to prepare aqueous solutions (as adjusted to pH 7 by addition of hydrochloric acid). […] The tested compounds of this invention are expressed by the same abbreviations as in Table 1. […] The comparative compounds as tested are also expressed by the same abbreviations as in Table 1.

[15] = system: Serratia marcescens; test: MIC, standard serial dilution method; format: cell-based; settings: Mueller-Hinton agar, 37° C
[16] = system: Staphylococcus aureus 209P; test: MIC, standard serial dilution method; format: cell-based; settings: Mueller-Hinton agar, 37° C
[17] = system: Pseudomonas aeruginosa A3; test: MIC, standard serial dilution method; format: cell-based; settings: Mueller-Hinton agar, 37° C
[18] = system: Bacillus subtilis PCI219; test: MIC, standard serial dilution method; format: cell-based; settings: Mueller-Hinton agar, 37° C
[19] = system: Escherichia coli JR225; test: microbe, parasite or virus in culture; format: cell-based; settings: resistance mechanism AAC(3), Mueller-Hinton agar, 37° C

NC[C@H]1O[C@H](O[C@H]2[C@H](O)[C@@H](O[C@H]3O[C@H](CO)[C@@H](O)[C@H](N)[C@H]3O)[C@H](N)C[C@@H]2N)[C@H](F)C[C@@H]1O [2',3'-dideoxy-2'-fluorokanamycin A]
antibacterial activity compared with parent (e.g. kanamycin A) [1]: improved antibacterial activities, as compared to those of their corresponding parent compounds

NC[C@@H]1C[C@H](F)[C@@H](N)[C@@H](O[C@H]2[C@H](O)[C@@H](O[C@H]3O[C@H](CO)[C@@H](O)[C@H](N)[C@H]3O)[C@H](N)C[C@@H]2N)O1 [3',4'-dideoxy-3'-fluorokanamycin B]
antibacterial activity compared with parent (e.g. kanamycin A) [1]: improved antibacterial activities, as compared to those of their corresponding parent compounds

NC[C@H]1O[C@H](O[C@H]2[C@H](O)[C@@H](O[C@H]3O[C@H](CO)[C@@H](O)[C@H](N)[C@H]3O)[C@H](N)C[C@@H]2N)[C@H](O)[C@@H](F)[C@@H]1O [3'-deoxy-3'-fluorokanamycin A]
antibacterial activity compared with parent (e.g. kanamycin A) [1]: improved antibacterial activities, as compared to those of their corresponding parent compounds

NC[C@H]1O[C@H](O[C@H]2[C@H](O)[C@@H](O[C@H]3O[C@H](CO)[C@@H](O)[C@H](N)[C@H]3O)[C@H](N)C[C@@H]2N)[C@H](N)[C@@H](F)[C@@H]1O [3'-deoxy-3'-fluorokanamycin B]
antibacterial activity compared with parent (e.g. kanamycin A) [1]: improved antibacterial activities, as compared to those of their corresponding parent compounds; also recorded: remarkable antibacterial activities against various gram-positive and gram-negative bacteria, including the resistant bacteria

NC[C@H]1O[C@H](O[C@H]2[C@H](O)[C@@H](O[C@H]3O[C@H](CO)[C@H](F)[C@H](N)[C@H]3O)[C@H](N)C[C@@H]2N)[C@H](O)[C@@H](O)[C@@H]1O [4"-deoxy-4"-fluoro-4"-epi-kanamycin A]
antibacterial activity compared with parent (e.g. kanamycin A) [1]: lower than that of kanamycin A

NC[C@H]1O[C@H](O[C@H]2[C@@H](F)[C@@H](O[C@H]3O[C@H](CF)[C@@H](O)[C@H](N)[C@H]3O)[C@H](N)C[C@@H]2N)[C@H](O)[C@@H](O)[C@@H]1O [5,6"-dideoxy-5,6"-difluoro-5-epi-kanamycin A]
antibacterial activity compared with parent (e.g. kanamycin A) [1]: antibacterial activities substantially as high as that of kanamycin A

NC[C@H]1O[C@H](O[C@H]2[C@@H](F)[C@@H](O[C@H]3O[C@H](CO)[C@H](O)[C@H](N)[C@H]3O)[C@H](N)C[C@@H]2N)[C@H](O)[C@@H](O)[C@@H]1O [5-deoxy-5-fluoro-5,4"-di-epi-kanamycin A]
antibacterial activity compared with parent (e.g. kanamycin A) [1]: antibacterial activities substantially as high as that of kanamycin A

NC[C@H]1O[C@H](O[C@H]2[C@H](O)[C@@H](O[C@H]3O[C@H](CF)[C@@H](O)[C@H](N)[C@H]3O)[C@H](N)C[C@@H]2N)[C@H](O)[C@@H](O)[C@@H]1O [6"-deoxy-6"-fluorokanamycin A]
antibacterial activity compared with parent (e.g. kanamycin A) [1]: antibacterial activities substantially as high as that of kanamycin A

CN[C@@H]1[C@@H](O)[C@@H](O[C@@H]2[C@@H](O)[C@H](O[C@H]3O[C@H]([C@@H](C)N)CC[C@H]3N)[C@@H](N)C[C@H]2N)OC[C@]1(C)O [Genta-C2, gentamicin C2, reference compound]
MIC [2]: 25 µg/mL (≈ 53.9 µM)
MIC [3]: 1.56 µg/mL (≈ 3.37 µM)
MIC [4]: 3.12 µg/mL (≈ 6.73 µM)
MIC [5]: 0.2 µg/mL (≈ 0.431 µM)
MIC [6]: 0.39 µg/mL (≈ 0.841 µM)
MIC [7]: 0.78 µg/mL (≈ 1.68 µM)
MIC [8]: 12.5 µg/mL (≈ 27 µM)
MIC [9]: 6.25 µg/mL (≈ 13.5 µM)
MIC [10]: 0.39 µg/mL (≈ 0.841 µM)
MIC [11]: 12.5 µg/mL (≈ 27 µM)
MIC [12]: 1.56 µg/mL (≈ 3.37 µM)
MIC [13]: < 0.2 µg/mL
LD50 [14]: ~90 mg/kg
MIC [15]: 0.78 µg/mL (≈ 1.68 µM)
MIC [16]: < 0.2 µg/mL
MIC [17]: 0.39 µg/mL (≈ 0.841 µM)
MIC [18]: < 0.2 µg/mL
MIC [19]: 6.25 µg/mL (≈ 13.5 µM)

CCN[C@@H]1C[C@H](N)[C@@H](O[C@H]2OC(CN)=CC[C@H]2N)[C@H](O)[C@H]1O[C@H]1OC[C@](C)(O)[C@H](NC)[C@H]1O [Netilmicin, netilmicin, reference compound]
MIC [2]: 0.39 µg/mL (≈ 0.82 µM)
MIC [3]: 50 µg/mL (≈ 105 µM)
MIC [4]: > 100 µg/mL
MIC [5]: 0.39 µg/mL (≈ 0.82 µM)
MIC [6]: 1.56 µg/mL (≈ 3.28 µM)
MIC [7]: 0.78 µg/mL (≈ 1.64 µM)
MIC [8]: 0.39 µg/mL (≈ 0.82 µM)
MIC [9]: 6.25 µg/mL (≈ 13.1 µM)
MIC [10]: 0.39 µg/mL (≈ 0.82 µM)
MIC [11]: 0.39 µg/mL (≈ 0.82 µM)
MIC [12]: 1.56 µg/mL (≈ 3.28 µM)
MIC [13]: < 0.2 µg/mL
LD50 [14]: 30 mg/kg
MIC [15]: 6.25 µg/mL (≈ 13.1 µM)
MIC [16]: < 0.2 µg/mL
MIC [17]: 0.39 µg/mL (≈ 0.82 µM)
MIC [18]: < 0.2 µg/mL
MIC [19]: 12.5 µg/mL (≈ 26.3 µM)
